According to BindingDB's records for doi:10.1021/jm9011609 (University of Manchester, 2009):

Molecular target: NAD(P)H dehydrogenase [quinone] 1 (Homo sapiens, UniProt P15559)
Assay: Inhibition of NQO1 (With 2 uM BSA)
Settings: pH 7.5
Procedure: On some occasions, potential inhibitors were dissolved in 0.13 M NaOH. Reactions were carried out at 25 deg C and cytochrome c reduction was monitored at 550nm in a BeckmanDU650 spectrophotometer.

NAD(P)H dehydrogenase [quinone] 1, sequence (P15559 whole entry): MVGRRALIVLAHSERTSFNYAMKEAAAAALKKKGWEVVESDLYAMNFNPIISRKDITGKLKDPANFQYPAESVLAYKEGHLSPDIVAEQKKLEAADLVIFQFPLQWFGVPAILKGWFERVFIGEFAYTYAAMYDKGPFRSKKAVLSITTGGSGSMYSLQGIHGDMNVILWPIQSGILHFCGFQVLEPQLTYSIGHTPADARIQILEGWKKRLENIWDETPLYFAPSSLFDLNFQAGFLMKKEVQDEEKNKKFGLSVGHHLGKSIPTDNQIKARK

| IC50 | IC50 (25 °C) | SMILES |
| --- | --- | --- |
| 35 nM | 880 nM | O=c1oc2c(ccc3ccccc32)c(O)c1Cc1ccccc1 [4-hydroxy-2H-chromen-2-one core, 21] |
| 6 nM | 2370 nM | O=c1oc2ccc3ccccc3c2c(O)c1Cc1ccc2ccccc2c1 [4-hydroxy-2H-chromen-2-one core, 23] |
